What all share (experiment): inhibition of tumour cell growth, NCI panel, 48 h
Experiment [1] deals with SK-MEL-5 melanoma.
The subject of experiment [2] is SN12C renal.
For experiment [3], the system named is NCI-H460 lung.
Experiment [4] relates to SK-OV-3 ovarian.
Experiment [5] relates to SF-268 CNS.
Experiment [6] has as its system OVCAR-5 ovarian.
The subject of experiment [7] is HCT-116 colon.
The subject of experiment [8] is HL-60(TB) leukemia.
Experiment [9] relates to RXF 393 renal.
Experiment [10] deals with UO-31 renal.
In experiment [11] the test system is SW-620 colon.
The subject of experiment [12] is NCI-H23 lung.
Experiment [13] concerns OVCAR-3 ovarian.
The test system of experiment [14] is HT29 colon.
The test system of experiment [15] is HOP-62 NSCLC.
In experiment [16] the test system is CCRF-CEM leukemia.
The test system of experiment [17] is SF-539 CNS.
The subject of experiment [18] is OVCAR-8 ovarian.
The test system of experiment [19] is SK-MEL-2 melanoma.
Experiment [20] concerns EKVX NSCLC.

Among the data in PubChem BioAssay (NCI) are TGI values, retold here.

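Method: 48-hour compound exposure of cells in 96-well plates, five concentrations, linear interpolation of endpoints. TGI is the concentration that stops growth completely.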 A value given as a limit tells only on which side of the number the result lay.

Consider `O=Nn1c2ccccc2c2cc([N+](=O)[O-])ccc21`, for which the TGI is > 100 µM in experiment [1]; 37 µM in experiment [2]; 54.2 µM in [3]; 30.1 µM in experiment [4]; 32.7 µM in [5]; 47.7 µM in experiment [6]. In addition, the TGI in experiment [7] was 32.5 µM; in experiment [8], > 100 µM; in experiment [9], 30.8 µM; in experiment [10], 49.2 µM; in [11], 59.7 µM; in [12], 38.3 µM. Besides, the TGI in experiment [13] came out at 33.6 µM; in experiment [14] it was 68 µM; in experiment [15] it was 25.7 µM; in [16], 44.5 µM; in experiment [17] it was 37.2 µM; in [18], 31.6 µM. Also, the TGI in experiment [19] amounted to 96.8 µM; in experiment [20], 36.3 µM.

For `CC(C)OP(=O)(OC(C)C)C1=NN(c2ccc([N+](=O)[O-])cc2)C(P(=O)(OC(C)C)OC(C)C)=NN1c1ccc([N+](=O)[O-])cc1`, the TGI in experiment [1], in experiment [2], in experiment [3], in experiment [4], in experiment [5] and in [6] was > 100 µM throughout. The TGI in experiment [7] was > 100 µM; in [8], 16.4 µM; in experiment [9], > 100 µM; in [10] it was > 100 µM; in experiment [11] it was > 100 µM; in experiment [12] it was > 100 µM. The TGI in experiment [13], in experiment [14], in [15], in experiment [16], in [17] and in experiment [18] was > 100 µM throughout. In addition, the TGI in experiment [19] and in [20] was > 100 µM each time.
